Active and inactive are the calls of the source. The calls are words filed in the database; no cut-off is given here.
Legend:
[1] = system: Huh-7; experiment: Antiproliferative activity against human Huh-7 cells assessed as inhibition of cell proliferation treated for 72 hrs by resazurin dye-based fluorescence assay; type: functional; details: Huh-7, 72 h
[2] = Toxicity in castrated male nude Balb/c mouse xenografted with human 22Rv1 cells assessed as toxic signs at 50 mg/kg, ip administered twice a week measured after 28 days; type: organism-based, CWR22R; details: in vivo, 672 h, time 28 day
[3] = Half life in Beagle dog at 1 mg/kg, iv measured for 0.083 to 24 hrs by LC-MS/MS analysis; type: ADME, organism-based, Canis lupus familiaris; details: in vivo, time 0.083-24 hrs
[4] = system: BXPC-3; experiment: Induction of apoptosis in human BXPC-3 cells assessed as necrotic cells at 100 nM incubated for 24 hrs by […] (reference value: 3.57 %); type: functional
[5] = (§1) Prodrug conversion in human plasma assessed as mixture of benzyl 2-(((((2R,3R,5R)-5-(4-amino-2-oxopyrimidin-1(2H)-yl)-4,4-difluoro-3-hydroxytetrahydrofuran-2-yl)methoxy)(hydroxy)phosphoryl)oxy)acetate and benzyl 2-(((((2R,3R,5R)-5-(4-amino-2-oxopyrimidin-1(2H)-yl)-4,4-difluoro-2-(hydroxymethyl)tetrahydrofuran-3-yl)oxy)(hydroxy)phosphoryl)oxy)acetate metabolites formation incubated for 72 hrs by 31P-NMR analysis; type: ADME, cell-free
[6] = system: CWR22R; experiment: In vivo antitumor activity against human 22Rv1 cells xenografted in castrated male nude Balb/c mouse assessed as tumor growth inhibition at 50 mg/kg, ip administered twice a week measured after 28 days relative to control; type: functional; details: 22Rv1, 672 h, time 28 day, read-out: TGI
[7] = system: BXPC-3; experiment: Induction of apoptosis in human BXPC-3 cells assessed as necrotic cells at 50 nM incubated for 24 hrs by […] (reference value: 3.57 %); type: functional
[8] = system: BXPC-3; experiment: Induction of apoptosis in human BXPC-3 cells assessed as early cells at 50 nM incubated for 24 hrs by […] (reference value: 1.68 %); type: functional
[9] = system: MIA PaCa-2; experiment: Antiproliferative activity against human MIA PaCa-2 cells assessed as inhibition of cell proliferation treated for 72 hrs by resazurin dye-based fluorescence assay; type: functional; details: MIA PaCa-2, 72 h
[10] = Toxicity in castrated male nude Balb/c mouse xenografted with human 22Rv1 cells assessed as animal weight loss at 50 mg/kg, ip administered twice a week measured after 28 days; type: organism-based, CWR22R; details: in vivo, 672 h, time 28 day
[11] = system: BXPC-3; experiment: Induction of apoptosis in human BXPC-3 cells assessed as early cells at 100 nM incubated for 24 hrs by […] (reference value: 1.68 %); type: functional
[12] = Toxicity in castrated male nude Balb/c mouse xenografted with human 22Rv1 cells assessed as tolerance at 50 mg/kg, ip administered twice a week measured after 28 days; type: organism-based, CWR22R; details: in vivo, 672 h, time 28 day
[13] = system: BXPC-3; experiment: Induction of apoptosis in human BXPC-3 cells assessed as late cells at 100 nM incubated for 24 hrs by […] (reference value: 1.24 %); type: functional
[14] = as §1, with “LC-MS” for “31P-NMR”; type: ADME, cell-free
[15] = system: BXPC-3; experiment: Induction of apoptosis in human BXPC-3 cells assessed as viable cells at 50 nM incubated for 24 hrs by […] (reference value: 93.51 %); type: functional; details: read-out: Activity
[16] = Prodrug conversion in human plasma assessed as metabolites formation incubated for 24 hrs by 31P-NMR analysis; type: ADME, cell-free
[17] = system: MV4-11; experiment: Antiproliferative activity against human MV4-11 cells assessed as inhibition of cell proliferation treated for 72 hrs by resazurin dye-based fluorescence assay; type: functional; details: MV4-11, 72 h
[18] = system: MM1.S; experiment: Antiproliferative activity against human MM1.S cells assessed as inhibition of cell proliferation treated for 72 hrs by resazurin dye-based fluorescence assay; type: functional
[19] = system: BXPC-3; experiment: Induction of apoptosis in human BXPC-3 cells assessed as late cells at 25 nM incubated for 24 hrs by […] (reference value: 1.24 %); type: functional
[20] = system: BXPC-3; experiment: Induction of apoptosis in human BXPC-3 cells assessed as early cells at 25 nM incubated for 24 hrs by […] (reference value: 1.68 %); type: functional
[21] = system: BXPC-3; experiment: In vivo antitumor activity against human BXPC-3 cells xenografted in nude Balb/c mouse assessed as tumor growth inhibition at 50 to 80 mg/kg, ip measured after 28 days; type: functional, organism-based; details: dose 50-80 mg/kg, time 28.0 day
[22] = Metabolic stability in beagle dog plasma assessed as half life incubated for 6 hrs by HPLC analysis; type: ADME, cell-free, Canis lupus familiaris
[23] = system: CWR22R; experiment: In vivo antitumor activity against human 22Rv1 cells xenografted in castrated male nude Balb/c mouse assessed as relative increment ratio at 50 mg/kg, ip administered twice a week measured after 28 days relative to control; type: functional; details: time 28 day
[24] = Cmax in Beagle dog at 1 mg/kg, iv measured for 0.083 to 24 hrs by LC-MS/MS analysis; type: ADME, organism-based, Canis lupus familiaris; design: time upper 24 hrs, time lower 0.083 hrs, dose 1 mg/kg, route iv; details: in vivo
[25] = system: BXPC-3; experiment: Induction of apoptosis in human BXPC-3 cells assessed as necrotic cells at 25 nM incubated for 24 hrs by […] (reference value: 3.57 %); type: functional
[26] = system: BXPC-3; experiment: Induction of apoptosis in human BXPC-3 cells assessed as viable cells at 100 nM incubated for 24 hrs by […] (reference value: 93.51 %); type: functional; details: read-out: Activity
[27] = AUC (0 to infinity) in Beagle dog at 1 mg/kg, iv measured for 0.083 to 24 hrs by LC-MS/MS analysis; type: ADME, organism-based, Canis lupus familiaris; design: time upper 24 hrs, time lower 0.083 hrs, dose 1 mg/kg, route iv; details: in vivo
[28] = system: JeKo-1; experiment: Antiproliferative activity against human JeKo-1 cells assessed as inhibition of cell proliferation treated for 72 hrs by resazurin dye-based fluorescence assay; type: functional; details: JeKo-1, 72 h
[29] = Toxicity in nude Balb/c mouse xenografted with human BXPC-3 cells assessed as apparent signs of toxicity at 50 to 80 mg/kg, ip measured after 28 days; type: organism-based; details: in vivo, 672 h, dose 50-80 mg/kg, time 28 day
[30] = system: BXPC-3; experiment: Induction of apoptosis in human BXPC-3 cells assessed as viable cells at 25 nM incubated for 24 hrs by […] (reference value: 93.51 %); type: functional; details: read-out: Activity
[31] = as §1, with “1H-NMR” for “31P-NMR”; type: ADME, cell-free
[32] = Metabolic stability in rat plasma assessed as half life incubated for 6 hrs by HPLC analysis; type: ADME, cell-free
[33] = system: CWR22R; experiment: Antiproliferation activity against human 22Rv1 cells xenografted in castrated male nude Balb/c mouse assessed as downregulation of Ki-67 level at 50 mg/kg, ip administered twice a week measured after 28 days by immunohistochemical assay relative to control; type: functional, organism-based; details: time 28.0 day
[34] = system: BXPC-3; experiment: Cell cycle arrest in human BXPC-3 cells assessed as cell accumulation at S phase at 25 to 100 nM incubated for 24 hrs by flow cytometry; type: functional, cell-based; details: dose 25-100 nM
[35] = system: BXPC-3; experiment: Upregulation of cleaved caspase-3 expression in human BXPC-3 cells at 25 to 100 nM incubated for 24 hrs by Western blot analysis; type: functional, cell-based; details: dose 25-100 nM
[36] = system: CWR22R; experiment: Antiproliferative activity against human 22Rv1 cells assessed as inhibition of cell proliferation treated for 72 hrs by resazurin dye-based fluorescence assay; type: functional; details: 22Rv1, 72 h
[37] = system: BXPC-3; experiment: Upregulation of P21 WAF1/Cip1 expression in human BXPC-3 cells at 25 to 100 nM incubated for 24 hrs by Western blot analysis; type: functional, cell-based; details: dose 25-100 nM
[38] = system: BXPC-3; experiment: Induction of apoptosis in human BXPC-3 cells assessed as late cells at 50 nM incubated for 24 hrs by […] (reference value: 1.24 %); type: functional
[39] = system: BXPC-3; experiment: Antiproliferative activity against human BXPC-3 cells assessed as inhibition of cell proliferation treated for 72 hrs by resazurin dye-based fluorescence assay; type: functional; details: BXPC-3, 72 h
[40] = Metabolic stability in human plasma assessed as half life incubated for 6 hrs by HPLC analysis; type: ADME, cell-free
[41] = Clearance in Beagle dog at 1 mg/kg, iv measured for 0.083 to 24 hrs by LC-MS/MS analysis; type: ADME, organism-based, Canis lupus familiaris; details: in vivo, time 0.083-24 hrs

**Q.** Which IC50 [1] does the source give for `Nc1ccn([C@@H]2O[C@@H]3COP(=O)(OCC(=O)OCc4ccccc4)O[C@H]3C2(F)F)c(=O)n1` (stereo partly specified) here?
**A.** Its IC50 is 16.2 nM.

**Q.** And the Activity [2]?
**A.** The Activity was “Non-Toxic”.

**Q.** What about the half-life [3] of the same molecule?
**A.** The half-life was 7.2 min.

**Q.** And the Activity [4]?
**A.** Its Activity is 4.42%.

**Q.** What about the Drug metabolism [5] of the same molecule?
**A.** Its Drug metabolism is “Metabolite_Detected”.

**Q.** What about the inhibition in vivo at 50 mg/kg [6] of the same molecule?
**A.** Its inhibition in vivo at 50 mg/kg is 68.5%.

**Q.** And the Activity [7]?
**A.** The Activity was 4.02%.

**Q.** What about the Activity [8] of the same molecule?
**A.** Its Activity is 3.19%.

**Q.** What about the IC50 [9] of the same molecule?
**A.** Its IC50 is 12.5 nM.

**Q.** And the Activity [10]?
**A.** The Activity was “Non-Toxic”.

**Q.** And the Activity [11]?
**A.** Its Activity is 3.5%.

**Q.** What about the Activity [12] of the same molecule?
**A.** Its Activity is “Non-Toxic”.

**Q.** What about the Activity [13] of the same molecule?
**A.** The Activity was 3.48%.

**Q.** And the Drug metabolism [14]?
**A.** The Drug metabolism was “Metabolite_Detected”.

**Q.** What about the viability at 0.05 µM [15] of the same molecule?
**A.** The viability at 0.05 µM was 90.1%.

**Q.** What about the Drug metabolism [16] of the same molecule?
**A.** The Drug metabolism was “Metabolite_Detected”.

**Q.** What about the IC50 [17] of the same molecule?
**A.** The IC50 was 5.4 nM.

**Q.** What about the IC50 [18] of the same molecule?
**A.** Its IC50 is 3.6 nM.

**Q.** And the Activity [19]?
**A.** Its Activity is 2.31%.

**Q.** What about the Activity [20] of the same molecule?
**A.** Its Activity is 2.87%.

**Q.** What about the Activity [21] of the same molecule?
**A.** The Activity was “Active”.

**Q.** And the half-life [22]?
**A.** Its half-life is 40 min.

**Q.** What about the T/C [23] of the same molecule?
**A.** The T/C was 35.2%.

**Q.** And the Cmax [24]?
**A.** The Cmax was 3600 ng/mL.

**Q.** What about the Activity [25] of the same molecule?
**A.** Its Activity is 3.17%.

**Q.** What about the viability at 0.1 µM [26] of the same molecule?
**A.** Its viability at 0.1 µM is 88.6%.

**Q.** And the AUC(0-inf) [27]?
**A.** Its AUC(0-inf) is 520 ng·h/mL.

**Q.** What about the IC50 [28] of the same molecule?
**A.** The IC50 was 19.2 nM.

**Q.** What about the Activity [29] of the same molecule?
**A.** The Activity was “Non-Toxic”.

**Q.** What about the viability at 0.025 µM [30] of the same molecule?
**A.** Its viability at 0.025 µM is 91.7%.

**Q.** What about the Drug metabolism [31] of the same molecule?
**A.** The Drug metabolism was “Metabolite_Detected”.

**Q.** What about the half-life [32] of the same molecule?
**A.** The half-life was 40 min.

**Q.** And the Activity [33]?
**A.** Its Activity is “Active”.

**Q.** What about the Activity [34] of the same molecule?
**A.** Its Activity is “Active”.

**Q.** What about the Activity [35] of the same molecule?
**A.** Its Activity is “inactive”.

**Q.** And the IC50 [36]?
**A.** The IC50 was 10.6 nM.

**Q.** And the Activity [37]?
**A.** Its Activity is “Active”.

**Q.** What about the Activity [38] of the same molecule?
**A.** The Activity was 2.73%.

**Q.** What about the IC50 [39] of the same molecule?
**A.** Its IC50 is 16.5 nM.

**Q.** And the half-life [40]?
**A.** The half-life was 40 min.

**Q.** And the clearance [41]?
**A.** The clearance was 32.5 mL/min/kg.
